How the values were obtained:
[1] = Test B: Cytotoxicity Assay; format: cell-based; settings: human, uninfected MT-4 cells, same protocol as Test A
Outline: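 Uninfected MT-4 cells (2000 per well) incubated with diluted compound at 37° C. for 5 days, following the antiviral protocol without HIV-IIIb.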

HIV-IIIb = experiment: Test A: Antiviral Assay in MT4 Cells; format: cell-based, HIV-1; settings: Human immunodeficiency virus 1, IIIB, MT4, 120 h; for inhibition at 0.2 µM: read-out: % inhibition at 0.2 μM; for inhibition at 2 µM: read-out: % inhibition at 2 μM
Description: Test A: Antiviral Assay in MT4 Cells
MT-4 cells were next mixed with HIV-IIIb at an m.o.i of 0.003 for 1 hour, after which time 35 μL of virus/cell mixture (2000 cells) was immediately added to each well containing 40 μL of diluted compound. The plates were then incubated at 37° C. for 5 days. […] Cell lysis was carried out by incubating at room temperature for 10 min and then chemiluminescence was read.

Row | SMILES | CC50 at 5 days [1] [µM] | inhibition at 0.2 µM (HIV-IIIb) [%] | inhibition at 2 µM (HIV-IIIb) [%]
1 | Cc1ccc(-c2ccc(C#CC(C)(C)O)nc2[C@H](Cc2cc(F)cc(F)c2)NC(=O)Cn2nc(C(F)F)c3c2C(F)(F)[C@@H]2C[C@H]32)c2c1c(N)nn2C [Compound 58G, N—((S)-1-(3-(3-amino-1,4-dimethyl-1H-indazol-7-yl)-6-(3-hydroxy-3-methylbut-1-yn-1-yl)pyridin-2-yl)-2-(3,5-difluorophenyl)ethyl)-2-((3b-S,4aR)-3-(difluoromethyl)-5,5-difluoro-3b,4,4a,5-tetrahydro-1H-cyclopropa[3,4]cyclopenta[1,2-c]pyrazol-1-yl)acetamide] | 8.44 | 95 | 95
2 | Cn1cc(-c2ccc(-c3cccc4c(NS(C)(=O)=O)nn(C)c34)c([C@H](Cc3cc(F)cc(F)c3)NC(=O)Cn3nc(C(F)(F)F)c4c3C(F)(F)[C@@H]3C[C@H]43)n2)cn1 [Compound 60, 2-((3bS,4aR)-5,5-difluoro-3-(trifluoromethyl)-3b,4,4a,5-tetrahydro-1H-cyclopropa[3,4]cyclopenta[1,2-c]pyrazol-1-yl)-N—((S)-2-(3,5-difluorophenyl)-1-(6-(1-methyl-1H-pyrazol-4-yl)-3-(1-methyl-3-(methylsulfonamido)-1H-indazol-7-yl)pyridin-2-yl)ethyl)acetamide] | 14.3 | 86 | 96
3 | CN(C)CC#Cc1ccc(-c2cccc3c(NS(C)(=O)=O)nn(C)c23)c([C@H](Cc2cc(F)cc(F)c2)NC(=O)Cn2nc(C(F)(F)F)c3c2C(F)(F)[C@@H]2C[C@H]32)n1 [Compound 61B, 2-((3bS,4aR)-5,5-difluoro-3-(trifluoromethyl)-3b,4,4a,5-tetrahydro-1H-cyclopropa[3,4]cyclopenta[1,2-c]pyrazol-1-yl)-N—((S)-2-(3,5-difluorophenyl)-1-(6-(3-(dimethylamino)prop-1-yn-1-yl)-3-(1-methyl-3-(methylsulfonamido)-1H-indazol-7-yl)pyridin-2-yl)ethyl)acetamide] | 14.3 | 96 | 96
4 | CC(C)C(C)(O)C#Cc1ccc(-c2cccc3c(NS(C)(=O)=O)nn(C)c23)c([C@H](Cc2cc(F)cc(F)c2)NC(=O)Cn2nc(C(F)(F)F)c3c2C(F)(F)[C@@H]2C[C@H]32)n1 (stereo partly drawn) [Compound 62, 2-((3bS,4aR)-5,5-difluoro-3-(trifluoromethyl)-3b,4,4a,5-tetrahydro-1H-cyclopropa[3,4]cyclopenta[1,2-c]pyrazol-1-yl)-N-((1S)-2-(3,5-difluorophenyl)-1-(6-(3-hydroxy-3,4-dimethylpent-1-yn-1-yl)-3-(1-methyl-3-(methylsulfonamido)-1H-indazol-7-yl)pyridin-2-yl)ethyl)acetamide] | 5.7 | 100 | 100
5 | Cn1nc(NS(C)(=O)=O)c2cccc(-c3ccc(C#CC(C)(C)CO)nc3[C@H](Cc3cc(F)cc(F)c3)NC(=O)Cn3nc(C(F)(F)F)c4c3C(F)(F)[C@@H]3C[C@H]43)c21 [Compound 63, 2-((3bS,4aR)-5,5-difluoro-3-(trifluoromethyl)-3b,4,4a,5-tetrahydro-1H-cyclopropa[3,4]cyclopenta[1,2-c]pyrazol-1-yl)-N—((S)-2-(3,5-difluorophenyl)-1-(6-(4-hydroxy-3,3-dimethylbut-1-yn-1-yl)-3-(1-methyl-3-(methylsulfonamido)-1H-indazol-7-yl)pyridin-2-yl)ethyl)acetamide] | 8.89 | 91 | 91
6 | CC(C)C(O)C#Cc1ccc(-c2cccc3c(NS(C)(=O)=O)nn(C)c23)c([C@H](Cc2cc(F)cc(F)c2)NC(=O)Cn2nc(C(F)(F)F)c3c2C(F)(F)[C@@H]2C[C@H]32)n1 (stereo partly drawn) [Compound 64, 2-((3bS,4aR)-5,5-difluoro-3-(trifluoromethyl)-3b,4,4a,5-tetrahydro-1H-cyclopropa[3,4]cyclopenta[1,2-c]pyrazol-1-yl)-N-((1S)-2-(3,5-difluorophenyl)-1-(6-(3-hydroxy-4-methylpent-1-yn-1-yl)-3-(1-methyl-3-(methylsulfonamido)-1H-indazol-7-yl)pyridin-2-yl)ethyl)acetamide] | 7.7 | 98 | 98
7 | CCC(O)(C#Cc1ccc(-c2cccc3c(NS(C)(=O)=O)nn(C)c23)c([C@H](Cc2cc(F)cc(F)c2)NC(=O)Cn2nc(C(F)(F)F)c3c2C(F)(F)[C@@H]2C[C@H]32)n1)CC [Compound 66, 2-((3bS,4aR)-5,5-difluoro-3-(trifluoromethyl)-3b,4,4a,5-tetrahydro-1H-cyclopropa[3,4]cyclopenta[1,2-c]pyrazol-1-yl)-N—((S)-2-(3,5-difluorophenyl)-1-(6-(3-ethyl-3-hydroxypent-1-yn-1-yl)-3-(1-methyl-3-(methylsulfonamido)-1H-indazol-7-yl)pyridin-2-yl)ethyl)acetamide] | 6.96 | 97 | 97
8 | Cn1nc(NS(C)(=O)=O)c2cccc(-c3ccc(C#CC(C)(C)O)nc3[C@H](Cc3cc(F)cc(F)c3)NC(=O)Cn3nc(C(F)(F)F)c4c3C3CC3CO4)c21 (stereo partly drawn) [Compound 67I, N—((S)-2-(3,5-difluorophenyl)-1-(6-(3-hydroxy-3-methylbut-1-yn-1-yl)-3-(1-methyl-3-(methylsulfonamido)-1H-indazol-7-yl)pyridin-2-yl)ethyl)-2-(3-(trifluoromethyl)-5,5a,6,6a-tetrahydro-1H-cyclopropa[4,5]pyrano[3,2-c]pyrazol-1-yl)acetamide] | 21.5 | 94 | 94
9 | CNc1nn(C)c2c(-c3ccc(C#CC(C)(C)O)nc3[C@H](Cc3cc(F)cc(F)c3)NC(=O)Cn3nc(C(F)F)c4c3C(F)(F)[C@@H]3C[C@H]43)cccc12 [Compound 68G, 2-((3b-S,4aR)-3-(difluoromethyl)-5,5-difluoro-3b,4,4a,5-tetrahydro-1H-cyclopropa[3,4]cyclopenta[1,2-c]pyrazol-1-yl)-N—((S)-2-(3,5-difluorophenyl)-1-(6-(3-hydroxy-3-methylbut-1-yn-1-yl)-3-(1-methyl-3-(methylamino)-1H-indazol-7-yl)pyridin-2-yl)ethyl)acetamide] | 9.64 | 96 | 96
10 | CC(C)(O)C#Cc1ccc(-c2cccc3c(N)noc23)c([C@H](Cc2cc(F)cc(F)c2)NC(=O)Cn2nc(C(F)(F)F)c3c2C(F)(F)[C@@H]2C[C@H]32)n1 [Compound 69, N—((S)-1-(3-(3-aminobenzo[d]isoxazol-7-yl)-6-(3-hydroxy-3-methylbut-1-yn-1-yl)pyridin-2-yl)-2-(3,5-difluorophenyl)ethyl)-2-((3b-S,4aR)-5,5-difluoro-3-(trifluoromethyl)-3b,4,4a,5-tetrahydro-1H-cyclopropa[3,4]cyclopenta[1,2-c]pyrazol-1-yl)acetamide] | 0.718 | 77 | 77
11 | Cn1nc(NS(N)(=O)=O)c2c(Cl)ccc(-c3ccc(C#CC(C)(C)O)nc3[C@H](Cc3cc(F)cc(F)c3)NC(=O)Cn3nc(C(F)F)c4c3C(F)(F)[C@@H]3C[C@H]43)c21 [Compound 70, N—((S)-1-(3-(4-chloro-1-methyl-3-(sulfamoylamino)-1H-indazol-7-yl)-6-(3-hydroxy-3-methylbut-1-yn-1-yl)pyridin-2-yl)-2-(3,5-difluorophenyl)ethyl)-2-((3b-S,4aR)-3-(difluoromethyl)-5,5-difluoro-3b,4,4a,5-tetrahydro-1H-cyclopropa[3,4]cyclopenta[1,2-c]pyrazol-1-yl)acetamide] | 9.98 | 94 | 94
12 | CC(C)(O)C#Cc1ccc(-c2cccc3[nH]ncc23)c([C@H](Cc2cc(F)cc(F)c2)NC(=O)Cn2nc(C(F)(F)F)c3c2C(F)(F)[C@@H]2C[C@H]32)n1 [Compound 72, 2-((3bS,4aR)-5,5-difluoro-3-(trifluoromethyl)-3b,4,4a,5-tetrahydro-1H-cyclopropa[3,4]cyclopenta[1,2-c]pyrazol-1-yl)-N—((S)-2-(3,5-difluorophenyl)-1-(6-(3-hydroxy-3-methylbut-1-yn-1-yl)-3-(1H-indazol-4-yl)pyridin-2-yl)ethyl)acetamide] | 5.87 | 85 | 87
13 | CC(C)(O)C#Cc1ccc(-c2cccc3c(N)nccc23)c([C@H](Cc2cc(F)cc(F)c2)NC(=O)Cn2nc(C(F)(F)F)c3c2C(F)(F)[C@@H]2C[C@H]32)n1 [Compound 73, N—((S)-1-(3-(1-aminoisoquinolin-5-yl)-6-(3-hydroxy-3-methylbut-1-yn-1-yl)pyridin-2-yl)-2-(3,5-difluorophenyl)ethyl)-2-((3b-S,4aR)-5,5-difluoro-3-(trifluoromethyl)-3b,4,4a,5-tetrahydro-1H-cyclopropa[3,4]cyclopenta[1,2-c]pyrazol-1-yl)acetamide] | 4.49 | 86 | 86
14 | Cn1nc(NCC(F)F)c2cccc(-c3ccc(C#CC(C)(C)O)nc3[C@H](Cc3cc(F)cc(F)c3)NC(=O)Cn3nc(C(F)F)c4c3C(F)(F)[C@@H]3C[C@H]43)c21 [Compound 74D, N—((S)-1-(3-(3-((2,2-difluoroethyl)amino)-1-methyl-1H-indazol-7-yl)-6-(3-hydroxy-3-methylbut-1-yn-1-yl)pyridin-2-yl)-2-(3,5-difluorophenyl)ethyl)-2-((3b-S,4aR)-3-(difluoromethyl)-5,5-difluoro-3b,4,4a,5-tetrahydro-1H-cyclopropa[3,4]cyclopenta[1,2-c]pyrazol-1-yl)acetamide] | 6.91 | 99 | 99
